Measurements from US20250387388A1, “COMPOUND AS TRK INHIBITOR AND/OR RET INHIBITOR AND USE THEREOF” (Medinno Pharmaceutical Technology (Zhuhai) Co., Ltd., priority 2022, published 2025).
pIC50: −log10 of the molar value. Read-outs that look alike come from different tables or passages of the source. Blank lines part the entries; values can stand above or below the compound they belong to.

What was measured:
[1] = test system: ovalbumin-induced asthma model in mice; assay: Ovalbumin-induced asthma model in mice; format: in vivo, Balb/c mice; settings: vs. vehicle (model) group; nasal administration BID 5 days: MDI-1228 3 mg/kg, MDI-1288 3 mg/kg, MDI-1233 1, 3, 10 mg/kg; dexamethasone 1 mg/kg gavage QD
Protocol: After 7 days of acclimatization, animals were randomly grouped based on their body weight. The experiment was divided into 8 groups, with 8 mice in each group, as detailed in the table below.
• Preparation of Immunogen: Weigh an appropriate amount of OVA, to which an appropriate amount of PBS was added, to achieve a final concentration of 0.1 mg/ml. Then, an equal volume of aluminum adjuvant was added, and the resulting mixture was mixed well, and stored at 4° C., which was prepared before use. • Preparation of Sensitizer (5% OVA): Weigh an appropriate amount of OVA, to which an appropriate amount of PBS was added, to achieve a final concentration of 5%. The resulting mixture was mixed well, and store it at 4° C. for later use, which was prepared before use. • Preparation of Vehicle: Add 200 μl of Tween 80 to 100 ml of saline, and mix it well. […] Mix it well, and store it at 4° C. for later use. […] Mix it well, and store it at 4° C. for later use. […] Mix it well, and store it at 4° C. for later use. The solution was prepared once every three days.
• Immunization: On days 0, 7, 14, and 21, 200 μl of PBS was injected intraperitoneally for the first group, and 200 μl of (10 μg) OVA/aluminum adjuvant emulsion was injected intraperitoneally for groups 2-8. • Sensitization: From days 28 to 32, the first group of animals was exposed to nebulized PBS in a nebulization box for 20 minutes, and the groups 2-8 were exposed to nebulized 5% OVA in a nebulization box for 20 minutes. And then, they were removed. The sensitization was conducted at 12:30 PM daily. • Administration: The medicine was administrated twice a day at 9 AM and 5 PM via nasal drops. Dexamethasone (Dex) was administered by gavage once a day at 9 AM.
Serum IgE: Blood was collected from the orbits of animals after carbon dioxide euthanasia, and plasma was separated and stored at −40 degrees for plasma IgE detection.
Bronchoalveolar Lavage Fluid (BALF) Cell Count: An appropriate amount of foetal bovine serum was weighted and dissolved in PBS to a final concentration of 1%. After orbital blood collection, the trachea was exposed, and a 1 ml syringe needle was replaced with a mouse gavage needle. 0.8 ml of the lavage fluid was aspirated from the syringe and the lungs were lavaged three times. The lavage fluids were collected, and centrifuged at 1000 rpm for 10 minutes, and the supernatant was collected and stored at −40 degrees Celsius. Cells were resuspended with 1 ml of PBS and counted. 100 ul of centrifuged smear was taken and stained with Diff quick and the number of eosinophils, basophils, lymphocytes and macrophages were recorded.
Bronchoalveolar Lavage Fluid IL-5: Bronchoalveolar lavage fluid was collected to detect IL-5.
Pathological scoring criteria were: • A) 0 points: No lymphocyte infiltration; • B) 1 point: Trace lymphocyte infiltration; • C) 2 points: Mild lymphocyte infiltration; • D) 3 points: Moderate lymphocyte infiltration; • E) 4 points: Severe lymphocyte infiltration; • After scoring, the results were calculated and analyzed.

TRKA = TRKA (Homo sapiens (Human), UniProt P04629); assay: Inhibitory activity on TRKA (ADP-Glo Kinase Assay)
TRKB = TRKB (Homo sapiens (Human), UniProt Q16620); assay: Inhibitory activity on TRKB (ADP-Glo Kinase Assay)
TRKC = TRKC (Homo sapiens (Human), UniProt Q16288); assay: Inhibitory activity on TRKC (ADP-Glo Kinase Assay)
[2] = test system: imiquimod-induced psoriasis model; assay: Imiquimod-induced psoriasis model in mice; settings: for Clinical Score (mean ± standard error) / Skin Thickness Score (mean ± standard error): Calcitriol 75 mg/mice topical QD
acne model in rabbits = assay: Acne model in rabbits (coal tar + Propionibacterium acnes); format: in vivo, New Zealand white rabbits; settings: 1% Clindamycin gel 0.5 g/kg once per day
Protocol: Modeling: Rabbits were acclimated for 7 days. On the right inner ear canal exit of the rabbits, a 2 cm×2 cm area was treated with 2% coal tar solution once a day, 0.5-1 mL each time, for 26 consecutive days. […] On the 8th day, Propionibacterium acnes was injected intradermally at 3-4 sites on the rabbit ears, 50 μl per rabbit, injected every other day for a total of 5 times. Treatment was started randomly on the 9th day after the last injection.
Rabbits were treated according to their groups. The blank group received no treatment. […] The model group received an equal amount of vehicle treatment, with the same application method and duration as the test drug groups.
Twenty-four hours after the last administration, a 2.8 cm punch was used to prepare ear samples at the application site, and their weight was measured. The ears from the modeling site were fixed with 4% paraformaldehyde, and consecutive sections (3 slices) were taken from the same location for HE staining and histopathological analysis. At the same time, the area of 3 hair follicles and the diameter of 3 sebaceous glands were measured to calculate the average values. Blood was drawn from the heart and centrifuged to obtain serum, and the levels of interleukin-1α (IL-1α), interleukin-6 (IL-6), and dihydrotestosterone (DHT) in serum were determined according to the ELISA kit instructions.
Tissue samples from animal ears were excised, fixed in 4% paraformaldehyde, dehydrated, embedded in paraffin, and sectioned and HE stained for observation of histopathological morphology changes. The tissue samples were fixed in 4% paraformaldehyde at normal temperature and the taken ears tissue was rinsed with running water for several hours, dehydrated through a series of ethanol solutions (70%, 80%, 90%), and then treated with a mixture of pure alcohol and xylene for 15 minutes, followed by xylene I for 15 minutes and xylene II for 15 minutes (until transparent). The tissue was then placed in a mixture of xylene and paraffin at a volume ratio of 1:1 for 15 minutes, followed by immersion with paraffin I and paraffin II each for 50-60 minutes. The tissue was embedded in paraffin and sectioned, and the sections were baked, dewaxed and hydrated in distilled water. The resulting sections were then stained in hematoxylin solution for 3 minutes, differentiated in a hydrochloric acid alcohol solution for 15 seconds, slightly washed, blued in a return blue solution for 15 seconds, rinsed with running water, stained with eosin for 3 minutes, rinsed with running water, dehydrated, cleared, and mounted for microscopic examination.
A double-antibody one-step sandwich Enzyme-linked Immunosorbent Assay (ELISA) ket was used. A capture antibody for the mouse target indicators was pre-coated onto microplate wells, to which samples, standards, and HRP-labeled detection antibodies were added sequentially, followed by incubation and thorough washing. TMB substrate was added for color development, which turned into blue in the presence of peroxidase and then into yellow after acidification. The depth of color was positively correlated with the concentration of the target in the samples. The absorbance (OD450 value) was measured at a wavelength of 450 nm using the microplate reader, and the sample concentration was calculated.

Chain of TRKA (P04629 33-796 limits assumed): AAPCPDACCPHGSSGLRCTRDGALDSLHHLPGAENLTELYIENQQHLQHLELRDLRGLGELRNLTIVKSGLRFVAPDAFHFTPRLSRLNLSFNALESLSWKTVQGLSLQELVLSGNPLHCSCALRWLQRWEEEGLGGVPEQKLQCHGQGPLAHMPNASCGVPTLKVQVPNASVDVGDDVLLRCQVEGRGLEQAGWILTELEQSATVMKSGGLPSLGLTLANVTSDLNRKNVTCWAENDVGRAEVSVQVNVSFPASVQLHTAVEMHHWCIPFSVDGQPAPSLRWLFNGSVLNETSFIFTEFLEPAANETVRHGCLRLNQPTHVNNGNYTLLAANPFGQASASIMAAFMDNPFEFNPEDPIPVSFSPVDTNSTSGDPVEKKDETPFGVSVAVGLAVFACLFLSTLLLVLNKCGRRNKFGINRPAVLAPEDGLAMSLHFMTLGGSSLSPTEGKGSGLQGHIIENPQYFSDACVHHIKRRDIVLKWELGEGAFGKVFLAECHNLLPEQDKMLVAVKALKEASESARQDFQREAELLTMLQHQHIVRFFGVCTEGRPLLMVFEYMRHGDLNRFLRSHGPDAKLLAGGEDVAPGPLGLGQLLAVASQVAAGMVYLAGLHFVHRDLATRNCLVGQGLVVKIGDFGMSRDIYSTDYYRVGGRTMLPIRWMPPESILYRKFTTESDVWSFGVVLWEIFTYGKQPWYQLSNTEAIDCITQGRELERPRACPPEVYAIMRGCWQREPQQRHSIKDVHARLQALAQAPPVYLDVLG
Chain of TRKC (Q16288 32-839): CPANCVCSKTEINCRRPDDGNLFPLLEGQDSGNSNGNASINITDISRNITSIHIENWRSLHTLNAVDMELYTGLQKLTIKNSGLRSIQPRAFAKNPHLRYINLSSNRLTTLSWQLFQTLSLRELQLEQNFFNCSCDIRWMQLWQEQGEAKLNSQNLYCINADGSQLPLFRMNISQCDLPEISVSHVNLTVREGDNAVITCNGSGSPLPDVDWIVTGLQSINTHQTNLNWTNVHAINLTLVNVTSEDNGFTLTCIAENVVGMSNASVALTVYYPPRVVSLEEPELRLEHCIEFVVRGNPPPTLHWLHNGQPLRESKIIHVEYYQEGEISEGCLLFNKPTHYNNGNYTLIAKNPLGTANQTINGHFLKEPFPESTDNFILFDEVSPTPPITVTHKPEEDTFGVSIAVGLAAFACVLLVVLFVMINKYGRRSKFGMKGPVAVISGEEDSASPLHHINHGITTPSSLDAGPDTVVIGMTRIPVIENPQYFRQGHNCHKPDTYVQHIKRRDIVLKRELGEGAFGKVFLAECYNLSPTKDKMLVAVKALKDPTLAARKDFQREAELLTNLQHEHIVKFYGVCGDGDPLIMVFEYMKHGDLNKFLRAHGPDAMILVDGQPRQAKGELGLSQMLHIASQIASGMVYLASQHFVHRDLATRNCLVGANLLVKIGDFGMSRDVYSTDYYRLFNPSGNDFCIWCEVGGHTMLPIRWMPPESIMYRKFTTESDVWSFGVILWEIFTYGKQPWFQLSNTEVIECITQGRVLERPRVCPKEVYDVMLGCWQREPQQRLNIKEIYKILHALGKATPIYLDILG
Chain of TRKB (Q16620 32-822): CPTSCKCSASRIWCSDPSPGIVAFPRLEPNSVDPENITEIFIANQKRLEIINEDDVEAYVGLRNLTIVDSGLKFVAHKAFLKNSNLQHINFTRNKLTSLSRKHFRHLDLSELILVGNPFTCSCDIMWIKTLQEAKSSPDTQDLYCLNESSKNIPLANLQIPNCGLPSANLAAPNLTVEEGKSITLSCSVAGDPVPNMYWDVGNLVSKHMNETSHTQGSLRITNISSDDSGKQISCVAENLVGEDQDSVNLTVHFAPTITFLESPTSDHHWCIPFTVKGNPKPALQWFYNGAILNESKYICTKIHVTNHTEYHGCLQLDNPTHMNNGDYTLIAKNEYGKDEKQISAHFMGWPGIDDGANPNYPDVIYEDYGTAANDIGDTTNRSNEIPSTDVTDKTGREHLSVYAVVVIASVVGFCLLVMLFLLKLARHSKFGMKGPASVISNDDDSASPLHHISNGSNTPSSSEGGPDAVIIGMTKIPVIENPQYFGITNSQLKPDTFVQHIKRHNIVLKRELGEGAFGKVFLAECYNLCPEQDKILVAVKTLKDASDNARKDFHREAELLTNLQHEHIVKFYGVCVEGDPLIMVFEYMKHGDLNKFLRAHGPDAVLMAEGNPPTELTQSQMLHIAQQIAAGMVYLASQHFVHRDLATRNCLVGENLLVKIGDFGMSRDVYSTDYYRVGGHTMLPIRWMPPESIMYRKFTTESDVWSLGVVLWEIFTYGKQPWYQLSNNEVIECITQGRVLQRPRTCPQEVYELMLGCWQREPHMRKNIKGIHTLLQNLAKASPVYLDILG

SMILES: C[C@@H]1C[C@H]2[C@@H]3CCC4=CC(=O)C=C[C@]4(C)[C@@]3(F)[C@@H](O)C[C@]2(C)[C@@]1(O)C(=O)CO [dexamethasone, reference compound]
- Bronchoalveolar lavage fluid IL-5 expression level [1]: significantly reduced the expression of IL-5
- Inflammatory cell count in bronchoalveolar lavage fluid [1]: significantly reduced the Inflammatory Cell Count
- Lung tissue inflammatory cell infiltration (HE pathology) [1]: significantly reduced the lung tissue inflammatory cell infiltration
- Serum IgE expression level [1]: significantly reduced the expression of IgE

SMILES: CCc1cc(O)c(F)cc1-c1ccc2c(-c3nc4c([nH]3)CN(S(=O)(=O)C3CC3)C4)n[nH]c2c1 [MDI-218, 4-(3-(5-(cyclopropanesulfonyl)-1,4,5,6-tetrahydropyrrolo[3,4-d]imidazol-2-yl)-1H-indazol-6-yl)-5-ethyl-2-fluorophenol]
- pIC50 (TRKA; read-out: TRKA IC50, ATP 5 μM): 8.00
- pIC50 (TRKB; read-out: TRKB IC50, ATP 5 μM): 7.49
- pIC50 (TRKC; read-out: TRKC IC50, ATP 5 μM): 8.29

SMILES: CCc1cc(O)c(F)cc1-c1ccc2c(-c3nc4c([nH]3)CN(C(=O)N3CCCCC3)C4)n[nH]c2c1 [MDI-233]
- pIC50 (TRKA): 8.05
- pIC50 (TRKB): 7.52
- pIC50 (TRKC): 8.20

SMILES: CCc1cc(O)c(F)cc1-c1ccc2c(-c3nc4c([nH]3)CN(C(=O)c3cnc(N5CCOCC5)cn3)C4)n[nH]c2c1 [MDI-201, (2-(6-(2-ethyl-5-fluoro-4-hydroxyphenyl)-1H-indazol-3-yl)-4,6-dihydropyrrolo[3,4-d]imidazol-5(1H)-yl)(5-morpholinepyrazin-2-yl)ketone]
- pIC50 (TRKA): 8.24
- pIC50 (TRKB): 8.21
- pIC50 (TRKC): 8.66

SMILES: C=C1/C(=C\C=C2/CCC[C@]3(C)[C@@H]([C@H](C)CCCC(C)(C)O)CC[C@@H]23)C[C@@H](O)C[C@@H]1O [Calcitriol]
- Clinical Score (mean ± standard error) ([2]; Day 0): 0.0 ± 0.00
- Skin Thickness Score (mean ± standard error) ([2]; Day 0): 0.0 ± 0.00
- Clinical Score (mean ± standard error) ([2]; Day 1): 0.2 ± 0.13
- Skin Thickness Score (mean ± standard error) ([2]; Day 1): 0.0 ± 0.00
- Clinical Score (mean ± standard error) ([2]; Day 2): 1.2 ± 0.13
- Skin Thickness Score (mean ± standard error) ([2]; Day 2): 0.0 ± 0.00
- Clinical Score (mean ± standard error) ([2]; Day 3): 3.1 ± 0.28
- Skin Thickness Score (mean ± standard error) ([2]; Day 3): 0.7 ± 0.15
- Clinical Score (mean ± standard error) ([2]; Day 4): 4.3 ± 0.26
- Skin Thickness Score (mean ± standard error) ([2]; Day 4): 1.2 ± 0.20
- Clinical Score (mean ± standard error) ([2]; Day 5): 2.9 ± 0.18
- Skin Thickness Score (mean ± standard error) ([2]; Day 5): 0.8 ± 0.20
- Clinical Score (mean ± standard error) ([2]; Day 6): 2.5 ± 0.17
- Skin Thickness Score (mean ± standard error) ([2]; Day 6): 0.5 ± 0.17
- Clinical Score (mean ± standard error) ([2]; Day 7): 2.0 ± 0.00
- Skin Thickness Score (mean ± standard error) ([2]; Day 7): 0.0 ± 0.00
- Inhibition percentage of skin thickness score AUC relative to vehicle control group ([2]; calcitriol 75 mg/mice QD): 64.2%
- Skin histopathology ([2]; calcitriol 75 mg/mice QD): a trend of mitigation

SMILES: CCc1cc(O)c(F)cc1-c1ccc2c(-c3nc4c([nH]3)CN(C(=O)N3CCCC3)C4)n[nH]c2c1 [MDI-231, (2-(6-(2-ethyl-5-fluoro-4-hydroxyphenyl)-1H-indazol-3-yl)-4,6-dihydropyrrolo[3,4-d]imidazol-5-(1H)-yl)(pyrrolidin-1-yl)ketone]
- pIC50 (TRKA): 8.55
- pIC50 (TRKB): 8.23
- pIC50 (TRKC): 8.83

SMILES: CCC[C@@H]1C[C@@H](C(=O)N[C@@H]([C@H]2O[C@H](SC)[C@H](O)[C@@H](O)[C@H]2O)[C@H](C)Cl)N(C)C1 [clindamycin, reference compound]
- Hair follicle area (acne model in rabbits): not improved
- Rabbit ear weight (acne model in rabbits; 2 weeks): did not reduce ear weight

Second part, the compound after the results:

- pIC50 (TRKA; read-out: TRKA IC50, ATP 5 μM): 7.94
- pIC50 (TRKB; read-out: TRKB IC50, ATP 5 μM): 7.01
- pIC50 (TRKC; read-out: TRKC IC50, ATP 5 μM): 7.88
SMILES: CCOC(=O)N1Cc2nc(-c3n[nH]c4cc(-c5cc(F)c(O)cc5CC)ccc34)[nH]c2C1 [MDI-253, Ethyl 2-(6-(2-ethyl-5-fluoro-4-hydroxyphenyl)-1H-indazol-3-yl)-4,6-dihydropyrrolo[3,4-d]imidazol-5(1H)-carboxylate]

- pIC50 (TRKA): 9.64
- pIC50 (TRKB): 8.97
- pIC50 (TRKC): 9.70
SMILES: CCc1cc(O)c(F)cc1-c1ccc2c(-c3nc4c([nH]3)CN(C(=O)N3CCN(CC)CC3)C4)n[nH]c2c1 [MDI-236, (2-(6-(2-ethyl-5-fluoro-4-hydroxyphenyl)-1H-indazol-3-yl)-4,6-dihydropyrrolo[3,4-d]imidazol-5-(1H)-yl)(4-ethylpiperazin-1-yl)ketone]

- pIC50 (TRKB; read-out: TRKB IC50, ATP 5 μM): 8.53
- pIC50 (TRKC; read-out: TRKC IC50, ATP 5 μM): 9.14
SMILES: CCc1cc(O)c(F)cc1-c1ccc2c(-c3nc4c([nH]3)CN(C(=O)N(C)C)C4)n[nH]c2c1 [MDI-257, 2-(6-(2-ethyl-5-fluoro-4-hydroxyphenyl)-1H-indazol-3-yl)-N,N-dimethyl-4,6-dihydropyrrolo[3,4-d]imidazol-5(1H)-carboxamide]

- pIC50 (TRKA; read-out: TRKA IC50, ATP 5 μM): 7.92
- pIC50 (TRKB; read-out: TRKB IC50, ATP 5 μM): 8.45
- pIC50 (TRKC; read-out: TRKC IC50, ATP 5 μM): 8.42
SMILES: CCc1cc(O)c(F)cc1-c1ccc2c(-c3nc4c([nH]3)CN(C(=O)NCCO)C4)n[nH]c2c1 [MDI-248, 2-(6-(2-ethyl-5-fluoro-4-hydroxyphenyl)-1H-indazol-3-yl)-N-(2-hydroxylethyl)-4,6-dihydropyrrolo[3,4-d]imidazol-5(1H)-carboxamide]

- pIC50 (TRKA): 8.97
- pIC50 (TRKB): 8.90
- pIC50 (TRKC): 9.19
SMILES: CCc1cc(O)c(F)cc1-c1ccc2c(-c3nc4c([nH]3)CN(C(=O)N3CCOCC3)C4)n[nH]c2c1 [MDI-234, (2-(6-(2-ethyl-5-fluoro-4-hydroxyphenyl)-1H-indazol-3-yl)-4,6-dihydropyrrolo[3,4-d]imidazol-5-(1H)-yl)(morpholino)ketone]
